BigSolDB 2.1

Nc1nc(N)nc(NC2CC2)n1
Details	solubility (mole fraction)
in acetic acid, 293.15 K	0.0128
in acetic acid, 298.15 K	0.0155
in acetic acid, 303.15 K	0.0187
in acetic acid, 308.15 K	0.0227
in acetic acid, 313.15 K	0.0275
in acetic acid, 318.15 K	0.033
in acetic acid, 323.15 K	0.0395
in acetic acid, 328.15 K	0.0471
in acetic acid, 333.15 K	0.0562
in acetone, 283.15 K	0.000486
in acetone, 288.15 K	0.000535
in acetone, 293.15 K	0.000617
in acetone, 298.15 K	0.00071
in acetone, 303.15 K	0.000805
in acetone, 308.15 K	0.00091
in acetone, 313.15 K	0.00103
in acetone, 318.15 K	0.00114
in acetone, 323.15 K	0.00127
in acrylic acid, 293.15 K	0.0341
in acrylic acid, 298.15 K	0.0413
in acrylic acid, 303.15 K	0.0492
in acrylic acid, 308.15 K	0.0581
in acrylic acid, 313.15 K	0.0683
in acrylic acid, 318.15 K	0.0785
in acrylic acid, 323.15 K	0.09
in acrylic acid, 328.15 K	0.101
in acrylic acid, 333.15 K	0.112
in ethanol, 283.15 K	0.000916
in ethanol, 288.15 K	0.00107
in ethanol, 293.15 K	0.00127
in ethanol, 298.15 K	0.00149
in ethanol, 303.15 K	0.00172
in ethanol, 308.15 K	0.00205
in ethanol, 313.15 K	0.00253
in ethanol, 318.15 K	0.00299
in ethanol, 323.15 K	0.00355
in isobutanol, 283.15 K	0.000396
in isobutanol, 288.15 K	0.000483
in isobutanol, 293.15 K	0.000594
in isobutanol, 298.15 K	0.000702
in isobutanol, 303.15 K	0.00084
in isobutanol, 308.15 K	0.000983
in isobutanol, 313.15 K	0.00115
in isobutanol, 318.15 K	0.00131
in isobutanol, 323.15 K	0.0015
in isopentanol, 283.15 K	0.000469
in isopentanol, 288.15 K	0.000592
in isopentanol, 293.15 K	0.000725
in isopentanol, 298.15 K	0.00087
in isopentanol, 303.15 K	0.00104
in isopentanol, 308.15 K	0.00127
in isopentanol, 313.15 K	0.00148
in isopentanol, 318.15 K	0.0018
in isopentanol, 323.15 K	0.00214
in isopropanol, 283.15 K	0.000465
in isopropanol, 288.15 K	0.000529
in isopropanol, 293.15 K	0.000638
in isopropanol, 298.15 K	0.000751
in isopropanol, 303.15 K	0.000915
in isopropanol, 308.15 K	0.00109
in isopropanol, 313.15 K	0.00125
in isopropanol, 318.15 K	0.00146
in isopropanol, 323.15 K	0.00172
in methanol, 283.15 K	0.00199
in methanol, 288.15 K	0.00224
in methanol, 293.15 K	0.00251
in methanol, 298.15 K	0.00279
in methanol, 303.15 K	0.0031
in methanol, 308.15 K	0.00344
in methanol, 313.15 K	0.00378
in methanol, 318.15 K	0.00416
in methanol, 323.15 K	0.00456
in n-butanol, 283.15 K	0.00073
in n-butanol, 288.15 K	0.000871
in n-butanol, 293.15 K	0.00104
in n-butanol, 298.15 K	0.00126
in n-butanol, 303.15 K	0.0015
in n-butanol, 308.15 K	0.00179
in n-butanol, 313.15 K	0.00217
in n-butanol, 318.15 K	0.00262
in n-butanol, 323.15 K	0.0031
in n-heptanol, 283.15 K	0.000235
in n-heptanol, 288.15 K	0.000322
in n-heptanol, 293.15 K	0.000422
in n-heptanol, 298.15 K	0.000556
in n-heptanol, 303.15 K	0.000737
in n-heptanol, 308.15 K	0.000957
in n-heptanol, 313.15 K	0.00124
in n-heptanol, 318.15 K	0.00162
in n-heptanol, 323.15 K	0.00213
in n-hexanol, 283.15 K	0.000534
in n-hexanol, 288.15 K	0.000661
in n-hexanol, 293.15 K	0.000816
in n-hexanol, 298.15 K	0.001
in n-hexanol, 303.15 K	0.00123
in n-hexanol, 308.15 K	0.00151
in n-hexanol, 313.15 K	0.00185
in n-hexanol, 318.15 K	0.00227
in n-hexanol, 323.15 K	0.00279
in n-pentanol, 283.15 K	0.000671
in n-pentanol, 288.15 K	0.000818
in n-pentanol, 293.15 K	0.000981
in n-pentanol, 298.15 K	0.00119
in n-pentanol, 303.15 K	0.00142
in n-pentanol, 308.15 K	0.00171
in n-pentanol, 313.15 K	0.00204
in n-pentanol, 318.15 K	0.00245
in n-pentanol, 323.15 K	0.00291
in n-propanol, 283.15 K	0.000809
in n-propanol, 288.15 K	0.000927
in n-propanol, 293.15 K	0.00113
in n-propanol, 298.15 K	0.00136
in n-propanol, 303.15 K	0.00163
in n-propanol, 308.15 K	0.00191
in n-propanol, 313.15 K	0.00237
in n-propanol, 318.15 K	0.00281
in n-propanol, 323.15 K	0.00327
in propionic acid, 278.15 K	0.00472
in propionic acid, 283.15 K	0.00562
in propionic acid, 288.15 K	0.00697
in propionic acid, 293.15 K	0.00847
in propionic acid, 298.15 K	0.0101
in propionic acid, 303.15 K	0.0123
in propionic acid, 308.15 K	0.0148
in propionic acid, 313.15 K	0.0177
in propionic acid, 318.15 K	0.0212
in sec-butanol, 283.15 K	0.000301
in sec-butanol, 288.15 K	0.00038
in sec-butanol, 293.15 K	0.00048
in sec-butanol, 298.15 K	0.000581
in sec-butanol, 303.15 K	0.000686
in sec-butanol, 308.15 K	0.000846
in sec-butanol, 313.15 K	0.000995
in sec-butanol, 318.15 K	0.0012
in sec-butanol, 323.15 K	0.00147
in water, 283.15 K	0.000931
in water, 288.15 K	0.00108
in water, 293.15 K	0.00125
in water, 298.15 K	0.00144
in water, 303.15 K	0.00166
in water, 308.15 K	0.00193
in water, 313.15 K	0.00221
in water, 318.15 K	0.00254
in water, 323.15 K	0.00293
